Data: PubChem BioAssay AID2060345 (Molecular Pharmacology Branch, DTP, NCI, 2025)
Where “and” joins values, the source holds several entries; their conditions need not be identical. Identical values can stand only once.

Test system: MALME-3M multicell spheroids, viability
Experiment: Anticancer human tumor MALME-3M cell line growth inhibition [TAK];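 further: spheroids exposed to drugs for seven days before readout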;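 on viability, T/C: 100% = DMSO vehicle control viability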
Details: for viability, T/C: stronger effect = lower value
Excerpt: Combinatorial screen of targeted agents with TAK-243 and ipatasertib in multi-cell type tumor spheroids
A high-throughput screen of multi-cell type tumor spheroids was designed to identify active combinations of targeted small molecules and TAK-243 or ipatasertib. Complex spheroids include a stromal component modeled by human endothelial cells (HUVEC) and fibroblasts modeled by human mesenchymal stem cells (MSCs). The concentration ranges selected for each drug and investigational agent were based upon clinically achievable concentrations if the clinical Cmax of the agent was known.
Compounds. The drugs and investigational agents: TAK-243 (785004), ipatasertib (767898), everolimus (733504), selumetinib (741078), bortezomib (756655), trametinib (758246), ixazomib (758254), vemurafenib (761431), dabrafenib (764134), sapanisertib (764658), alpelisib (765974), and copanlisib (816437), were obtained from the National Cancer Institute (NCI) Developmental Therapeutics Program Chemical Repository. The FDA-approved anticancer drug set is available from the NCI Developmental Therapeutics Program. […] The stock solutions were prepared in dimethyl sulfoxide (DMSO, Sigma-Aldrich, St. Louis, MO, cat. D2650) at 800-fold the tested concentration and stored at -70 degrees C prior to their use. All drugs and investigational agents were tested over a range starting from a high concentration at or near the clinical Cmax and decreasing in half-log increments. If the clinical Cmax for an agent had not been determined, the highest concentration tested was 10 microM.
NCI60 Cell Culture. NCI60 cell lines were obtained from the NCI Developmental Therapeutics Program Tumor Repository. For each lot of cells, the Repository performed Applied Biosystems AmpFLSTR Identifiler testing with PCR amplification to confirm consistency with the published Identifier STR profile for each cell line. Cells were kept in continuous culture for no more than 20 passages. The optimal seeding densities for each of the cell lines at each time point assessed were determined prior to performing the concentration response studies. Briefly, the NCI60 human tumor lines were grown as monolayers in RPMI 1640 medium supplemented with 10% FBS and 2 mmol/L L-glutamine.
An additional 2 lines were from the NCI60 cell line panel including melanomas, MALME-3M and SK-MEL-2. Pooled donor human umbilical vein endothelial cells (HUVEC, Lonza, cat. CC-2519) and human mesenchymal stem cells (hMSC, Lonza, cat. PT-2501) were purchased from Lonza (Walkersville, MD).
PDMR cell lines were grown in complete medium (DC medium): Dulbecco's modified Eagle's medium (DMEM)/F12 supplemented with 5% fetal bovine serum (FBS), 2 mM L-glutamine, 100 U/mL penicillin and 100 µg/ml streptomycin, 0.4 µg/ml hydrocortisone, 10 ng/ml epidermal growth factor (EGF) recombinant human protein, 24 µg/mL adenine, and 0.1 mg/mL primocin. During culture from frozen stock vials, PDMR cells were cultured in the same medium containing 10 µM Y-27632 (see Table 3). The PDCs were cultured in complete DMEM/F12 media without 10 microM Y-27632 dihydrochloride for at least two passages prior to the screen. The pooled donor HUVEC and hMSC were cultured in endothelial cell growth medium 2 (PromoCell, Heidelberg, Germany, cat. C-22011) and mesenchymal stem cell growth medium 2 (PromoCell, cat. C-28009), respectively. For all experiments, HUVEC and hMSC were used at passages </=5.
For the pre-screen, cell seeding densities were determined from a titration spanning the range from 5,000 to 313 cells per well. The mct-spheroids including 60% malignant cells, 25% HUVEC and 15% MSC dispensed as a mixture into U-bottom Ultra-Low Attachment 384-well plates (Corning, NY)
High-throughput Drug Combination Screening.
Prior to their inoculation into 384-well plates, malignant cells, HUVEC, and hMSC were removed from T flasks using TrypLE express (Thermo Fisher Scientific, cat. 12605036) and harvested by centrifugation for 5 min at 233 x g. […]

IC50 (curve of compound) | Structure (SMILES) | viability, T/C (compound 0.0316 µM) | viability, T/C (compound 0.1 µM) | viability, T/C (compound 0.000316 µM) | viability, T/C (compound 0.001 µM) | viability, T/C (compound 0.00316 µM) | viability, T/C (compound 0.01 µM) | further results
0.284 nM and 0.293 nM | CC(=O)Nc1cccc(-n2c(=O)n(C3CC3)c(=O)c3c(Nc4ccc(I)cc4F)n(C)c(=O)c(C)c32)c1 | – | – | – | – | – | – | viability, T/C (compound 94.9 pM): 92.9% and 86.3%; viability, T/C (compound 0.0003 µM): 48.6% and 49.9%; viability, T/C (compound 0.000949 µM): 20.2% and 18.5%; viability, T/C (compound 0.003 µM): 15.9% and 15.3%; viability, T/C (compound 0.00949 µM): 9.62% and 9.1%; viability, T/C (compound 0.03 µM): 5.56% and 5.65%
< 31.6 nM | CC(C)(C)c1nc(-c2cccc(NS(=O)(=O)c3c(F)cccc3F)c2F)c(-c2ccnc(N)n2)s1 | 21.4% and 24.8% | 22.8% and 21.5% | – | – | – | – | viability, T/C (compound 0.316 µM): 20.7% and 21.4%; viability, T/C (compound 1 µM): 22.4% and 21.4%; viability, T/C (compound 3.16 µM): 21.2% and 23.6%; viability, T/C (compound 10 µM): 29.8% and 27.6%
2.14 nM and 1.56 nM | CC(C)CC(NC(=O)C(Cc1ccccc1)NC(=O)c1cnccn1)B(O)O (configuration not stated) | – | – | 98.5% and 86.3% | 97.5% and 70.5% | 25.8% and 18.3% | 0.68% and 0.19% | viability, T/C (compound 31.6 pM): 105% and 95.5%; viability, T/C (compound 0.0001 µM): 97.5% and 87.7%
17.2 nM and 18.1 nM | CC(C)CC(NC(=O)CNC(=O)c1cc(Cl)ccc1Cl)B1OC(=O)CC(CC(=O)O)(C(=O)O)O1 (configuration not stated) | 7.17% and 7.01% | 0.41% and 1.22% | 89.2% and 116% | 86.8% and 91.6% | 88.2% and 98.5% | 88.2% and 96% | –
– | CC(C)NCC(C(=O)N1CCN(c2ncnc3c2C(C)CC3O)CC1)c1ccc(Cl)cc1 (configuration not stated) | – | – | – | – | – | – | viability, T/C (compound 9.49 µM): 76% [middle of 10 runs]; viability, T/C (compound 30 µM): 50.4% [middle of 10 runs]; IC50 (compound alone, run of 02/20/2020): > 30000 nM and 23200 nM and 14800 nM
7.44 nM and 18.1 nM | CC(C)n1nc(-c2ccc3oc(N)nc3c2)c2c(N)ncnc21 | 28.3% and 33% | 10.5% and 13.6% | 78.4% and 94.5% | 64.4% and 88.7% | 63% and 77.5% | 47.5% and 70.1% | –
< 316 nM | CCCS(=O)(=O)Nc1ccc(F)c(C(=O)c2c[nH]c3ncc(-c4ccc(Cl)cc4)cc23)c1F | – | – | – | – | – | – | viability, T/C (compound 0.316 µM): 26.3% and 29.5%; viability, T/C (compound 1 µM): 22.6% and 22.5%; viability, T/C (compound 3.16 µM): 19.4% and 20.7%; viability, T/C (compound 10 µM): 15.4% and 17%; viability, T/C (compound 31.6 µM): 19.3% and 3.37%; viability, T/C (compound 100 µM): 15.6% and 16.2%
18.6 nM and 28.1 nM | COC1CC2CCC(C)C(O)(O2)C(=O)C(=O)N2CCCCC2C(=O)OC(C(C)CC2CCC(OCCO)C(OC)C2)CC(=O)C(C)C=C(C)C(O)C(OC)C(=O)C(C)CC(C)C=CC=CC=C1C (configuration not stated) | 50.5% and 50.7% | 44.2% and 44% | 83% and 79.4% | 66.2% and 59.1% | 58.1% and 59.4% | 52.3% and 58.6% | –
